According to the supplement of paper PMC10307832:

Legend:
Assay in all cases: relative viability (nuclei count vs DMSO), 5 days (fraction); higher = more cells survive
Bicalutamide = compound: CC(O)(CS(=O)(=O)c1ccc(F)cc1)C(=O)Nc1ccc(C#N)c(C(F)(F)F)c1 [Bicalutamide]
Method in brief: (§1)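 Vehicle-anchored 1536-well plates of lung cancer cell lines, held overnight at 37 °C, were pinned with five library-drug doses (not always all listed) spaced by √10. No medium change followed over the next 5 days, after which the cells were fixed, permeabilised and Hoechst-stained together and imaged at 4×. Nuclei were counted with MetaXpress, and viability is treated-well nuclei over vehicle-well nuclei, taken as a median across plates. Plates passed with control CV below 25% and at least one doubling.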

Bromopyruvate = compound: C(C(=O)C(=O)O)Br [Bromopyruvate]
Method in brief: as §1

[1] = compound: CC(O)(CS(=O)(=O)c1ccc(F)cc1)C(=O)Nc1ccc(C#N)c(C(F)(F)F)c1 [Bicalutamide] + Nc1nc2[nH]cc(CCc3ccc(C(=O)N[C@@H](CCC(=O)O)C(=O)O)cc3)c2c(=O)[nH]1 [Pemetrexed] (partner 0.2 µM)
Method in brief: (§2)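 One day after seeding in 1536-well plates, lung cancer cell lines were dosed by pin tool. Dosing was either single-drug or a fixed anchor-drug dose plus five library-drug doses (not always all listed) in √10 steps. After 5 days, nuclei were stained in one fix-and-stain step and counted on 4× images, and relative viability is the nuclei count of treated wells over that of vehicle wells, given as the median of duplicate plates.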

Bromopyruvate + OSI-027 = compound: C(C(=O)C(=O)O)Br [Bromopyruvate] + COc1cccc2cc(-c3nc([C@H]4CC[C@H](C(=O)O)CC4)n4ncnc(N)c34)[nH]c12 [OSI-027] (partner 0.5 µM)
Method in brief: as §2

| Cell Line | relative viability (Bicalutamide; 0.08 µM) | relative viability (Bicalutamide; 0.253 µM) | relative viability (Bicalutamide; 0.8 µM) | relative viability (Bicalutamide; 2.53 µM) | relative viability (Bromopyruvate; 1 µM) | relative viability (Bromopyruvate; 3.162 µM) | relative viability (Bromopyruvate; 10 µM) | relative viability (Bromopyruvate; 31.62 µM) | relative viability (Bromopyruvate; 100 µM) | relative viability ([1]; first compound 0.08 µM) | relative viability ([1]; first compound 0.253 µM) | relative viability ([1]; first compound 0.8 µM) | relative viability ([1]; first compound 2.53 µM) | relative viability (Bromopyruvate + OSI-027; first compound 1 µM) | relative viability (Bromopyruvate + OSI-027; first compound 3.162 µM) | relative viability (Bromopyruvate + OSI-027; first compound 10 µM) | relative viability (Bromopyruvate + OSI-027; first compound 31.62 µM) | relative viability (Bromopyruvate + OSI-027; first compound 100 µM) |
| --- | --- | --- | --- | --- | --- | --- | --- | --- | --- | --- | --- | --- | --- | --- | --- | --- | --- | --- |
| 201T | 1.02 | 0.932 | 1.02 | 1.01 | 1.03 | 0.983 | 1.04 | 0.946 | 0.997 | 0.306 | 0.33 | 0.328 | 0.36 | 0.508 | 0.752 | 0.71 | 0.763 | 0.638 |
| A549 | 0.974 | 0.875 | 1.16 | 0.973 | 0.942 | 0.969 | 1.18 | 0.95 | 1.06 | – | – | – | – | – | – | – | – | – |
| A-427 | 0.996 | 1.02 | 1.17 | 0.869 | 1.05 | 1.09 | 1.16 | 0.967 | 1.1 | 0.986 | 0.968 | 1.11 | 0.913 | 0.562 | 0.466 | 0.418 | 0.42 | 0.422 |
| ABC-1 | 0.998 | 0.857 | 0.951 | 0.943 | 1.14 | 0.935 | 0.807 | 0.995 | 0.945 | – | – | – | – | 0.425 | 0.471 | 0.513 | 0.521 | 0.548 |
| BEN | 1.01 | 0.876 | 1.34 | 1.03 | 1.07 | 0.949 | 0.971 | 0.951 | 0.934 | 0.854 | 0.74 | 1.15 | 0.837 | 0.307 | 0.296 | 0.293 | 0.277 | 0.298 |
| CAL-12T | 1.03 | 0.855 | 1.11 | 0.842 | 0.972 | 0.982 | 0.919 | 0.982 | 0.956 | 1.34 | 1.06 | 1.28 | 1.14 | 0.578 | 0.675 | 0.85 | 0.595 | 0.764 |
| COR-L23 | 1.03 | 1.01 | 1.18 | 0.877 | 1.02 | 0.913 | 1.19 | 1.03 | 0.723 | 0.204 | 0.203 | 0.184 | 0.196 | 0.817 | 0.879 | 0.977 | 0.705 | 0.401 |
| COR-L 105 | 1.05 | 0.814 | 1.03 | 0.825 | 0.87 | 1.06 | 0.866 | 0.838 | 0.687 | 1.25 | 1.19 | 1.08 | 1.05 | 0.563 | 0.701 | 0.712 | 0.671 | 0.639 |
| Calu-6 | 1.09 | 0.989 | 1.07 | 0.987 | 0.934 | 0.995 | 1.12 | 0.994 | 0.809 | – | – | – | – | – | – | – | – | – |
| ChaGo-K-1 | 0.998 | 0.962 | 1.18 | 0.976 | 0.979 | 0.995 | 1.07 | 1 | 1.02 | 0.256 | 0.252 | 0.251 | 0.247 | 0.715 | 0.521 | 0.629 | 0.578 | 0.493 |
| EBC-1 | 0.977 | 1.02 | 1.1 | 0.976 | 0.912 | 0.94 | 1.14 | 0.935 | 0.987 | – | – | – | – | – | – | – | – | – |
| EKVX | 1.02 | 0.984 | 1.09 | 0.914 | 0.988 | 0.973 | 1.06 | 1.01 | 0.969 | 0.378 | 0.335 | 0.392 | 0.391 | 0.746 | 0.691 | 0.827 | 0.666 | 0.761 |
| EMC-BAC-2 | 1.03 | 0.894 | 1.05 | 0.822 | 0.982 | 0.933 | 0.986 | 0.804 | 1.01 | 0.447 | 0.41 | 0.489 | 0.444 | 0.384 | 0.382 | 0.397 | 0.397 | 0.405 |
| EPLC-272H | 0.996 | 0.798 | 1.06 | 0.908 | 1.01 | 1.03 | 1.11 | 0.952 | 1.04 | 0.424 | 0.322 | 0.359 | 0.207 | 0.245 | 0.244 | 0.359 | 0.251 | 0.301 |
| H3255 | 0.969 | 0.896 | 1.02 | 0.907 | 0.953 | 0.999 | 1.02 | 1.01 | 1.12 | 0.584 | 0.536 | 0.62 | 0.571 | 0.523 | 0.637 | 0.683 | 0.679 | 0.573 |
| HARA | 1.02 | 0.802 | 1.01 | 0.953 | 1.01 | 1.1 | 0.997 | 0.983 | 1.05 | 0.233 | – | 0.299 | 0.251 | 0.518 | 0.567 | 0.624 | 0.436 | 0.571 |
| HCC-15 | 1.02 | 0.973 | 1.15 | 1 | 1.03 | 1.06 | 1.08 | 0.981 | 0.957 | 0.23 | 0.231 | 0.221 | 0.223 | 0.711 | 0.779 | 0.781 | 0.715 | 0.654 |
| HCC-44 | 1.03 | 0.998 | 0.981 | 1.01 | 1.02 | 0.986 | 0.992 | 1.01 | 0.985 | 0.675 | 0.707 | 0.637 | 0.688 | 0.616 | 0.634 | 0.483 | 0.596 | 0.483 |
| HCC-78 | 0.941 | 0.991 | 1.22 | 0.985 | 1.08 | 0.971 | 1.02 | 0.94 | 0.993 | 0.947 | 0.708 | 0.962 | 0.939 | 0.379 | 0.326 | 0.403 | 0.355 | 0.345 |
